We go through six compounds from PubChem BioAssay AID256 (DTP/NCI, 2004).

“And” between values parts separate entries of the source, which are not always exact repeats. Identical values can stand only once. Inconclusive results and toxic doses are left out.

This assay relates to CD2F1 mice, L1210 leukemia ip, survival T/C. The assay can be described thus: NCI In Vivo Anticancer Drug Screen. Data for tumor model L1210 Leukemia (intraperitoneal) in CD2F1 (CDF1) mice. Conditions: higher = longer survival. The method in brief: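 Read-out first: treated-group measurement over vehicle-control measurement, expressed as a ratio. Animals bore a transplanted tumor line and were dosed with compound or vehicle.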

Setting [1] is: endpoint: mean survival time, dose: 100.0 mg/kg/injection, schedule: Q01DX009 (ip), vehicle: Klucel (hydroxypropylcellulose) (HPC).
Setting [2] is: endpoint: mean survival time, dose: 200.0 mg/kg/injection, schedule: Q01DX009 (ip), vehicle: Klucel (hydroxypropylcellulose) (HPC).
The mark [3] stands for this setting: endpoint: mean survival time, dose: 400.0 mg/kg/injection, schedule: Q01DX009 (ip), vehicle: Klucel (hydroxypropylcellulose) (HPC).

In the case of `Nc1nc(=S)c2[nH]cnc2[nH]1`, the T/C is 110 % of control (endpoint: mean survival time, dose: 0.13 mg/kg/injection, schedule: Q01DX009 (ip), vehicle: other); 114 % of control and 120 % of control (endpoint: mean survival time, dose: 0.25 mg/kg/injection, schedule: Q01DX009 (ip), vehicle: alkali diluted with saline); 121 % of control (endpoint: mean survival time, dose: 0.25 mg/kg/injection, schedule: Q01DX009 (ip), vehicle: other); 116 % of control and 123 % of control (endpoint: mean survival time, dose: 0.38 mg/kg/injection, schedule: Q01DX009 (ip), vehicle: acid diluted with saline); 116 % of control (endpoint: mean survival time, dose: 0.5 mg/kg/injection, schedule: Q01DX005 (ip), vehicle: water); 124 % of control (endpoint: mean survival time, dose: 0.5 mg/kg/injection, schedule: Q01DX009 (ip), vehicle: alkali diluted with saline). The T/C (endpoint: mean survival time, dose: 0.5 mg/kg/injection, schedule: Q01DX009 (ip), vehicle: other) is 121 % of control; the T/C (endpoint: mean survival time, dose: 0.66 mg/kg/injection, schedule: Q01DX009 (ip), vehicle: clinical formulation) was 150 % of control; the T/C (endpoint: mean survival time, dose: 0.75 mg/kg/injection, schedule: Q01DX009 (ip), vehicle: acid diluted with saline) was 164 % of control; the T/C (endpoint: mean survival time, dose: 1.0 mg/kg/injection, schedule: Q01DX005 (ip), vehicle: alkali diluted with saline) is 163 % of control; the T/C (endpoint: mean survival time, dose: 1.0 mg/kg/injection, schedule: Q01DX005 (ip), vehicle: water) was 120 % of control; the T/C (endpoint: mean survival time, dose: 1.0 mg/kg/injection, schedule: Q01DX007 (ip), vehicle: saline) was 151 % of control. The T/C reads like this: (endpoint: mean survival time, dose: 1.0 mg/kg/injection, schedule: Q03DX003 (ip), vehicle: saline) 152 % of control; (endpoint: mean survival time, dose: 1.0 mg/kg/injection, schedule: Q04DX003 (ip), vehicle: saline) 154 % of control; (endpoint: mean survival time, dose: 1.12 mg/kg/injection, schedule: Q04DX003 (ip), vehicle: acid diluted with saline) 116 % of control and 118 % of control; (endpoint: mean survival time, dose: 1.2 mg/kg/injection, schedule: Q01DX009 (ip), vehicle: alkali diluted with saline) 152 % of control and 153 % of control; (endpoint: mean survival time, dose: 1.47 mg/kg/injection, schedule: Q01DX009 (ip), vehicle: clinical formulation) 150 % of control; (endpoint: mean survival time, dose: 1.47 mg/kg/injection, schedule: Q01DX009 (ip), vehicle: saline) 158 % of control. Besides, the T/C by setting is: (endpoint: mean survival time, dose: 1.5 mg/kg/injection, schedule: Q01DX009 (ip), vehicle: acid diluted with saline) 164 % of control and 171 % of control and 180 % of control; (endpoint: mean survival time, dose: 1.56 mg/kg/injection, schedule: Q01DX005 (ip), vehicle: alkali diluted with saline) 159 % of control; (endpoint: mean survival time, dose: 1.8 mg/kg/injection, schedule: Q01DX009 (ip), vehicle: alkali diluted with saline) 151 % of control; (endpoint: mean survival time, dose: 2.0 mg/kg/injection, schedule: Q01DX005 (ip), vehicle: alkali diluted with saline) 158 % of control; (endpoint: mean survival time, dose: 2.0 mg/kg/injection, schedule: Q03DX003 (ip), vehicle: saline) 160 % of control; (endpoint: mean survival time, dose: 2.0 mg/kg/injection, schedule: Q04DX003 (ip), vehicle: alkali diluted with saline) 122 % of control. For the same compound, the T/C was 160 % of control (endpoint: mean survival time, dose: 2.0 mg/kg/injection, schedule: Q04DX003 (ip), vehicle: saline); 155 % of control (endpoint: mean survival time, dose: 2.2 mg/kg/injection, schedule: Q01DX009 (ip), vehicle: clinical formulation); 536 % of control (endpoint: mean survival time, dose: 3.0 mg/kg/injection, schedule: Q01DX009 (ip), vehicle: alkali diluted with saline); 188 % of control (endpoint: mean survival time, dose: 3.12 mg/kg/injection, schedule: Q01DX005 (ip), vehicle: alkali diluted with saline); 150 % of control (endpoint: mean survival time, dose: 4.0 mg/kg/injection, schedule: Q01DX005 (ip), vehicle: alkali diluted with saline); 152 % of control (endpoint: mean survival time, dose: 4.0 mg/kg/injection, schedule: Q01DX007 (ip), vehicle: saline). Also, the T/C is 122 % of control (endpoint: mean survival time, dose: 4.0 mg/kg/injection, schedule: Q01DX009 (ip), vehicle: acid diluted with saline); 156 % of control (endpoint: mean survival time, dose: 4.0 mg/kg/injection, schedule: Q03DX003 (ip), vehicle: saline); 176 % of control (endpoint: mean survival time, dose: 4.0 mg/kg/injection, schedule: Q04DX003 (ip), vehicle: saline); 161 % of control (endpoint: mean survival time, dose: 4.5 mg/kg/injection, schedule: Q04DX003 (ip), vehicle: acid diluted with saline); 159 % of control (endpoint: mean survival time, dose: 6.25 mg/kg/injection, schedule: Q01DX005 (ip), vehicle: alkali diluted with saline); 166 % of control (endpoint: mean survival time, dose: 9.0 mg/kg/injection, schedule: Q04DX003 (ip), vehicle: acid diluted with saline). For the same compound, the T/C was 119 % of control (endpoint: mean survival time, dose: 12.5 mg/kg/injection, schedule: Q01DX005 (ip), vehicle: alkali diluted with saline); 176 % of control (endpoint: mean survival time, dose: 18.0 mg/kg/injection, schedule: Q04DX003 (ip), vehicle: acid diluted with saline); 152 % of control (endpoint: mean survival time, dose: 20.0 mg/kg/injection, schedule: Q04DX003 (ip), vehicle: alkali diluted with saline); 158 % of control (endpoint: mean survival time, dose: 23.0 mg/kg/injection, schedule: Q01DX001 (ip), vehicle: alkali diluted with saline); 96 % of control (endpoint: mean survival time, dose: 25.0 mg/kg/injection, schedule: Q01DX005 (ip), vehicle: alkali diluted with saline); 161 % of control (endpoint: mean survival time, dose: 31.0 mg/kg/injection, schedule: Q01DX001 (ip), vehicle: alkali diluted with saline). Further, the T/C by setting is: (endpoint: mean survival time, dose: 47.0 mg/kg/injection, schedule: Q01DX001 (ip), vehicle: alkali diluted with saline) 167 % of control; (endpoint: median survival time, dose: 0.86 mg/kg/injection, schedule: Q01DX009 (ip), vehicle: acid diluted with saline) 152 % of control and 154 % of control; (endpoint: median survival time, dose: 1.44 mg/kg/injection, schedule: Q01DX009 (ip), vehicle: acid diluted with saline) 160 % of control; (endpoint: median survival time, dose: 2.4 mg/kg/injection, schedule: Q01DX009 (ip), vehicle: acid diluted with saline) 158 % of control; (endpoint: median survival time, dose: 2.7 mg/kg/injection, schedule: Q04DX003 (ip), vehicle: alkali diluted with saline) 159 % of control; (endpoint: median survival time, dose: 4.0 mg/kg/injection, schedule: Q01DX009 (ip), vehicle: acid diluted with saline) 151 % of control and 152 % of control. Besides, the T/C was 172 % of control (endpoint: median survival time, dose: 4.5 mg/kg/injection, schedule: Q04DX003 (ip), vehicle: alkali diluted with saline); 191 % of control (endpoint: median survival time, dose: 7.5 mg/kg/injection, schedule: Q04DX003 (ip), vehicle: alkali diluted with saline); 187 % of control (endpoint: median survival time, dose: 12.5 mg/kg/injection, schedule: Q04DX003 (ip), vehicle: alkali diluted with saline); 151 % of control (endpoint: median survival time, dose: 20.0 mg/kg/injection, schedule: Q04DX003 (ip), vehicle: alkali diluted with saline); 166 % of control (endpoint: median survival time, dose: 20.83 mg/kg/injection, schedule: Q04DX003 (ip), vehicle: alkali diluted with saline); 150 % of control and 161 % of control (endpoint: median survival time, dose: 40.0 mg/kg/injection, schedule: Q01DX001 (ip), vehicle: alkali diluted with saline). For the same compound, the T/C (endpoint: median survival time, dose: 60.0 mg/kg/injection, schedule: Q01DX001 (ip), vehicle: alkali diluted with saline) was 183 % of control.
With `Cc1c2cc3c(cc2cc2c4cc5c(cc4cc[n+]12)OCO5)OCO3` (tested in a mixture with another compound), the T/C is, setting by setting: (endpoint: mean survival time, dose: 6.25 mg/kg/injection, schedule: Q04DX003 (ip), vehicle: saline) 116 % of control and 121 % of control; (endpoint: mean survival time, dose: 18.75 mg/kg/injection, schedule: Q04DX003 (ip), vehicle: saline) 95 % of control; (endpoint: mean survival time, dose: 25.0 mg/kg/injection, schedule: Q04DX003 (ip), vehicle: saline) 115 % of control and 90 % of control.
Consider `Cc1ccc(NC(=O)Oc2cc(C)c(Cl)cc2C)c([N+](=O)[O-])c1`, for which the T/C was 106 % of control under setting [1], 95 % of control under setting [2] and 92 % of control under setting [3].
Turning to `N=C(N)c1ccccc1`, the T/C is 94 % of control (endpoint: mean survival time, dose: 100.0 mg/kg/injection, schedule: Q01DX001 (ip), vehicle: saline); 100 % of control (endpoint: mean survival time, dose: 200.0 mg/kg/injection, schedule: Q01DX001 (ip), vehicle: saline); 94 % of control (endpoint: mean survival time, dose: 400.0 mg/kg/injection, schedule: Q01DX001 (ip), vehicle: saline).
For the compound `CCOC(=O)c1cc(Cl)cc(Cl)c1N=NN(C)C`, the T/C runs as follows: (endpoint: mean survival time, dose: 25.0 mg/kg/injection, schedule: Q01DX009 (ip), vehicle: saline) 93 % of control; (endpoint: mean survival time, dose: 50.0 mg/kg/injection, schedule: Q01DX009 (ip), vehicle: saline) 93 % of control; (endpoint: mean survival time, dose: 100.0 mg/kg/injection, schedule: Q01DX009 (ip), vehicle: saline) 100 % of control; (endpoint: mean survival time, dose: 200.0 mg/kg/injection, schedule: Q01DX009 (ip), vehicle: saline) 97 % of control.
Take `COc1cc(OC)c(OC)cc1/C=C\c1ccnc2ccccc12`: the T/C is, setting by setting: (endpoint: mean survival time, dose: 12.5 mg/kg/injection, schedule: Q01DX009 (ip), vehicle: Klucel (hydroxypropylcellulose) (HPC)) 96 % of control; (endpoint: mean survival time, dose: 25.0 mg/kg/injection, schedule: Q01DX009 (ip), vehicle: Klucel (hydroxypropylcellulose) (HPC)) 95 % of control; (endpoint: mean survival time, dose: 50.0 mg/kg/injection, schedule: Q01DX009 (ip), vehicle: Klucel (hydroxypropylcellulose) (HPC)) 98 % of control; under setting [1], 102 % of control; under setting [2], 112 % of control; under setting [3], 110 % of control.
